In one experiment the test system is Proteus mirabilis. Kind of experiment: Antimicrobial activity against Proteus mirabilis ATCC 25933 after 18 to 20 hrs by microbroth dilution method. It counts as functional. On the technique in general: Broth dilution looks for growth in wells or tubes with falling amounts of substance.
Experiment [1] has as its system Escherichia coli. As to the kind of experiment: Antimicrobial activity against Escherichia coli ATCC 35218 expressing TEM-1 beta lactamases after 18 to 20 hrs by microbroth dilution method. The experiment is classed as functional.
Experiment [2] deals with Escherichia coli. Kind of experiment: Induction of proton motive force collapse in Escherichia coli BW25113 at 100 uM by flow cytometry. It counts as functional, organism-based. (In general: In flow cytometry, cells or beads pass a laser one at a time.)
In the next experiment the test system is HepG2. Kind of experiment: Cytotoxicity against human HepG2 cells. It counts as cell-based.
In experiment [3] the test system is Escherichia coli. As to the kind of experiment: Antimicrobial activity against Escherichia coli isolate SJ 6 after 18 to 20 hrs by microbroth dilution method. The experiment is classed as functional.
For another experiment, the system named is Pseudomonas aeruginosa. Kind of experiment: Antimicrobial activity against Pseudomonas aeruginosa PAO1 after 18 to 20 hrs by microbroth dilution method. It counts as functional.
Experiment [4] deals with Klebsiella pneumoniae. Kind of experiment: Antimicrobial activity against Klebsiella pneumoniae isolate SJ 4 after 18 to 20 hrs by microbroth dilution method. The experiment is classed as functional.
The test system of experiment [5] is Klebsiella pneumoniae. Kind of experiment: Antimicrobial activity against Klebsiella pneumoniae isolate SJ 2 after 18 to 20 hrs by microbroth dilution method. The experiment is classed as functional.
In experiment [6] the test system is Escherichia coli. Kind of experiment: Antimicrobial activity against Escherichia coli BW25113 after 18 to 20 hrs by microbroth dilution method. The experiment is classed as functional.
The next experiment concerns Acinetobacter baumannii. As to the kind of experiment: Antimicrobial activity against Acinetobacter baumannii ATCC 19606 after 18 to 20 hrs by microbroth dilution method. The conditions noted are these: ATCC 19606 = CIP 70.34 = JCM 6841. The experiment is classed as functional.
In experiment [7] the test system is Escherichia coli. As to the kind of experiment: Antimicrobial activity against Escherichia coli isolate SJ 3 after 18 to 20 hrs by microbroth dilution method. The experiment is classed as functional.
Experiment [8] deals with Escherichia coli. Kind of experiment: Antimicrobial activity against tolC deficient Escherichia coli JW5503-1 after 18 to 20 hrs by microbroth dilution method. It counts as functional.
The subject of experiment [9] is Escherichia coli. As to the kind of experiment: Antimicrobial activity against Escherichia coli ATCC 25922 after 18 to 20 hrs by microbroth dilution method. It counts as functional.
Experiment [10] concerns Escherichia coli. Kind of experiment: Antimicrobial activity against Escherichia coli isolate SJ 5 after 18 to 20 hrs by microbroth dilution method. The experiment is classed as functional.
For the next experiment, the system named is Vero. As to the kind of experiment: Cytotoxicity against African green monkey Vero cells. The experiment is classed as cell-based. The conditions noted are these: Chlorocebus sabaeus.
For experiment [11], the system named is Escherichia coli. As to the kind of experiment: Antimicrobial activity against Escherichia coli isolate SJ 1 after 18 to 20 hrs by microbroth dilution method. The experiment is classed as functional.
Experiment [12] deals with Escherichia coli. As to the kind of experiment: Antimicrobial activity against Escherichia coli isolate SJ 4 after 18 to 20 hrs by microbroth dilution method. The experiment is classed as functional.
Experiment [13] concerns Klebsiella pneumoniae. Kind of experiment: Antimicrobial activity against Klebsiella pneumoniae isolate SJ 1 after 18 to 20 hrs by microbroth dilution method. It counts as functional.
The subject of experiment [14] is Klebsiella pneumoniae. Kind of experiment: Antimicrobial activity against Klebsiella pneumoniae isolate SJ 3 after 18 to 20 hrs by microbroth dilution method. It counts as functional.
The test system of experiment [15] is Klebsiella pneumoniae. Kind of experiment: Antimicrobial activity against Klebsiella pneumoniae ATCC 33495 after 18 to 20 hrs by microbroth dilution method. The experiment is classed as functional.
The test system of experiment [16] is Klebsiella pneumoniae. Kind of experiment: Antimicrobial activity against Klebsiella pneumoniae isolate SJ 5 after 18 to 20 hrs by microbroth dilution method. It counts as functional.
For experiment [17], the system named is Escherichia coli. Kind of experiment: Antimicrobial activity against Escherichia coli isolate SJ 2 after 18 to 20 hrs by microbroth dilution method. The experiment is classed as functional.
The test system of the next experiment is Bacillus anthracis. As to the kind of experiment: Antimicrobial activity against Bacillus anthracis Sterne 34F2 after 18 to 20 hrs by microbroth dilution method. The experiment is classed as functional.
The next experiment relates to Bacillus cereus. Kind of experiment: Antimicrobial activity against Bacillus cereus ATCC 14579 after 18 to 20 hrs by microbroth dilution method. It counts as functional.
Experiment [18] concerns Staphylococcus aureus. As to the kind of experiment: Potency index, ratio of cefaclor MIC to compound MIC for methicillin-resistant Staphylococcus aureus NRS70. The experiment is classed as functional.
The test system of experiment [19] is Staphylococcus aureus. As to the kind of experiment: Potency index, ratio of […] MIC to compound MIC for […] Staphylococcus aureus ATCC 29213. It counts as functional.
The subject of experiment [20] is Staphylococcus aureus. As to the kind of experiment: Antimicrobial activity against methicillin-susceptible Staphylococcus aureus ATCC 29213 after 18 to 20 hrs by microbroth dilution method. It counts as functional.
For experiment [21], the system named is Staphylococcus aureus. Kind of experiment: Potency index, ratio of cefaclor MIC to compound MIC for […] Staphylococcus aureus ATCC 29213. It counts as functional.
The next experiment deals with Streptococcus pyogenes. Kind of experiment: Antimicrobial activity against Streptococcus pyogenes ATCC 700294 after 18 to 20 hrs by microbroth dilution method. It counts as functional. The note with it: M1 GAS.
Another experiment relates to Enterococcus faecalis. Kind of experiment: Antimicrobial activity against Enterococcus faecalis ATCC 33186 after 18 to 20 hrs by microbroth dilution method. The experiment is classed as functional.
In a further experiment the test system is Enterobacter cloacae. As to the kind of experiment: Antimicrobial activity against Enterobacter cloacae ATCC 13047 after 18 to 20 hrs by microbroth dilution method. The note with it: subsp. cloacae ATCC 13047. The experiment is classed as functional.
The test system of experiment [22] is Staphylococcus aureus. Kind of experiment: Antimicrobial activity against methicillin-susceptible Staphylococcus aureus NRS70 after 18 to 20 hrs by microbroth dilution method. It counts as functional.
Experiment [23] concerns Staphylococcus aureus. As to the kind of experiment: Potency index, ratio of […] MIC to compound MIC for methicillin-resistant Staphylococcus aureus NRS70. The experiment is classed as functional.
The next experiment deals with Bacillus subtilis. Kind of experiment: Antimicrobial activity against Bacillus subtilis ATCC 23857 after 18 to 20 hrs by microbroth dilution method. The experiment is classed as functional.
A further experiment concerns Streptococcus pneumoniae. Kind of experiment: Antimicrobial activity against Streptococcus pneumoniae R6 after 18 to 20 hrs by microbroth dilution method. It counts as functional.
The test system of experiment [24] is Stenotrophomonas maltophilia. As to the kind of experiment: Antimicrobial activity against Stenotrophomonas maltophilia ATCC 700475 after 18 to 20 hrs by microbroth dilution method. It counts as functional.

The structures appear in SMILES notation. Converted amounts (≈) assume the structure as drawn. The source made the active and inactive calls. The calls are words filed in the database; no cut-off is given here. A value given as a limit tells only on which side of the number the result lay.

`CO[C@@]1(NC(=O)CCCC(=O)C2=C(O)[C@@H](CCCNC(=N)N)NC2=O)C(=O)N2C(C(=O)O)=C(CSc3nnnn3C)CS[C@@H]21`: the minimal inhibitory concentration (MIC) against Proteus mirabilis is 6.25 µg/mL (≈ 9.58 µM); in the experiment with Escherichia coli [1], 3.13 µg/mL (≈ 4.8 µM); against Escherichia coli [3], 100 µg/mL (≈ 153 µM); against Pseudomonas aeruginosa, greater than 200 µg/mL; in the experiment on Klebsiella pneumoniae [4], 6.25 µg/mL (≈ 9.58 µM); in the experiment on Klebsiella pneumoniae [5], 3.13 µg/mL (≈ 4.8 µM). In addition, the minimal inhibitory concentration (MIC) against Escherichia coli [6] was 6.25 µg/mL (≈ 9.58 µM); against Acinetobacter baumannii it was greater than 200 µg/mL; against Escherichia coli [7] it was 3.13 µg/mL (≈ 4.8 µM); with Escherichia coli [8], 6.25 µg/mL (≈ 9.58 µM); in the experiment with Escherichia coli [9], 3.13 µg/mL (≈ 4.8 µM); in the experiment on Escherichia coli [10], 12.5 µg/mL (≈ 19.2 µM). Moreover, the MIC stood at 3.13 µg/mL (≈ 4.8 µM) in the experiment on Escherichia coli [11]; 25 µg/mL (≈ 38.3 µM) in the experiment with Escherichia coli [12]; 3.13 µg/mL (≈ 4.8 µM) against Klebsiella pneumoniae [13]; 6.25 µg/mL (≈ 9.58 µM) against Klebsiella pneumoniae [14]; 6.25 µg/mL (≈ 9.58 µM) with Klebsiella pneumoniae [15]; 12.5 µg/mL (≈ 19.2 µM) against Klebsiella pneumoniae [16]. Further, the lowest concentration to inhibit growth in the experiment with Escherichia coli [17] (MIC) was 3.13 µg/mL (≈ 4.8 µM). Also, the outcome in the experiment on Escherichia coli [2] was inactive. Moreover, the 50% inhibitory concentration (IC50) with HepG2 and in the experiment with Vero was greater than 200 µM each time.

In the case of `CC(=O)OCC1=C(C(=O)O)N2C(=O)[C@@H](NC(=O)CCNC(=O)C3=C(O)C(CC(C)C)NC3=O)[C@H]2SC1` (some centres not stated), the MIC is 200 µg/mL (≈ 381 µM) against Proteus mirabilis; 25 µg/mL (≈ 47.7 µM) in the experiment with Bacillus anthracis; greater than 200 µg/mL in the experiment on Bacillus cereus; greater than 200 µg/mL against Pseudomonas aeruginosa; greater than 200 µg/mL with Escherichia coli [6]; greater than 200 µg/mL against Acinetobacter baumannii. The MIC against Staphylococcus aureus [20] is 6.25 µg/mL (≈ 11.9 µM); in the experiment on Escherichia coli [8], greater than 200 µg/mL; against Streptococcus pyogenes, 12.5 µg/mL (≈ 23.8 µM); against Enterococcus faecalis, 200 µg/mL (≈ 381 µM); against Enterobacter cloacae, greater than 200 µg/mL; against Staphylococcus aureus [22], 6.25 µg/mL (≈ 11.9 µM). Besides, the minimal inhibitory concentration (MIC) against Bacillus subtilis was 3.13 µg/mL (≈ 5.97 µM); against Streptococcus pneumoniae, 12.5 µg/mL (≈ 23.8 µM); against Klebsiella pneumoniae [15] it was greater than 200 µg/mL; in experiment [24], greater than 200 µg/mL. The Ratio result in the experiment on Staphylococcus aureus [18], in the experiment on Staphylococcus aureus [19], in the experiment with Staphylococcus aureus [21] and in the experiment on Staphylococcus aureus [23] was “>=16” throughout.

Usually MIC stands for the least concentration at which growth counts as inhibited. Broadly, the IC50 is the concentration that inhibits the measured activity by half.

Values taken from ChEMBL document CHEMBL4229518, “New β-lactam - Tetramic acid hybrids show promising antibacterial activities” (Bioorg Med Chem Lett, 2018).
